Laboratory results: ChEMBL document CHEMBL3616377, “2-(3'-Indolyl)-N-arylthiazole-4-carboxamides: Synthesis and evaluation of antibacterial and anticancer activities” (Bioorg Med Chem Lett, 2015)
In brackets after ≈: the same amount, converted by molar mass.

How the values were obtained:
HeLa [1] = test: Cytotoxicity against human HeLa cells after 48 hrs by MTT assay in absence of 10% FBS; format: functional, cell-based
HEK-293T [2] = test: Cytotoxicity against human HEK293T cells after 48 hrs by MTT assay in presence of 10% FBS; format: cell-based
LNCaP [3] = test: Cytotoxicity against human LNCAP cells after 48 hrs by MTT assay in presence of 10% FBS; format: functional, cell-based
HeLa [4] = test: Cytotoxicity against human HeLa cells after 48 hrs by MTT assay in presence of 10% FBS; format: functional, cell-based
PC-3 [5] = test: Cytotoxicity against human PC3 cells after 48 hrs by MTT assay in presence of 10% FBS; format: functional, cell-based; settings: PC-3, 48 h
[6] = Cytotoxicity against human castration-resistant C4-2 cells after 48 hrs by MTT assay in absence of 10% FBS; format: functional, cell-based; settings: LNCaP C4-2, 48 h
Staphylococcus aureus [7] = test: Antibacterial activity against Staphylococcus aureus MTCC 96 after 18 to 24 hrs by agar well diffusion method; format: functional
Staphylococcus aureus [8] = test: Antibacterial activity against Staphylococcus aureus MTCC 96 after 18 to 24 hrs by broth microdilution method; format: functional
MDA-MB-231 [9] = test: Cytotoxicity against human MDA-MB-231 cells after 48 hrs by MTT assay in presence of 10% FBS; format: functional, cell-based; settings: MDA-MB-231, 48 h
Escherichia coli [10] = test: Antibacterial activity against Escherichia coli MTCC 1652 after 18 to 24 hrs by agar well diffusion method; format: functional
MDA-MB-231 [11] = test: Cytotoxicity against human MDA-MB-231 cells after 48 hrs by MTT assay in absence of 10% FBS; format: functional, cell-based; settings: MDA-MB-231, 48 h
Escherichia coli [12] = test: Antibacterial activity against Escherichia coli MTCC 1652 after 18 to 24 hrs by broth microdilution method; format: functional
[13] = Cytotoxicity against human castration-resistant C4-2 cells after 48 hrs by MTT assay in presence of 10% FBS; format: functional, cell-based; settings: LNCaP C4-2, 48 h
Pseudomonas putida [14] = test: Antibacterial activity against Pseudomonas putida MTCC 102 after 18 to 24 hrs by agar well diffusion method; format: functional
LNCaP [15] = test: Cytotoxicity against human LNCAP cells after 48 hrs by MTT assay in absence of 10% FBS; format: functional, cell-based
HEK-293T [16] = test: Cytotoxicity against human HEK293T cells after 48 hrs by MTT assay in absence of 10% FBS; format: cell-based
Pseudomonas putida [17] = test: Antibacterial activity against Pseudomonas putida MTCC 102 after 18 to 24 hrs by broth microdilution method; format: functional
PC-3 [18] = test: Cytotoxicity against human PC3 cells after 48 hrs by MTT assay in absence of 10% FBS; format: functional, cell-based; settings: PC-3, 48 h
Bacillus subtilis [19] = test: Antibacterial activity against Bacillus subtilis MTCC 121 after 18 to 24 hrs by agar well diffusion method; format: functional
Bacillus subtilis [20] = test: Antibacterial activity against Bacillus subtilis MTCC 121 after 18 to 24 hrs by broth microdilution method; format: functional
[21] = Solubility of the compound in 0.05 to 0.1% DMSO; format: physicochemical

| Structure (SMILES) | MIC (Staphylococcus aureus [8]) | MIC (Escherichia coli [12]) | MIC (Pseudomonas putida [17]) | MIC (Bacillus subtilis [20]) | IC50 (HeLa [1]) | IC50 (HEK-293T [2]) | IC50 (LNCaP [3]) | IC50 (HeLa [4]) | IC50 (PC-3 [5]) | IC50 [6] | inhibition zone (IZ) (Staphylococcus aureus [7]) | IC50 (MDA-MB-231 [9]) | inhibition zone (IZ) (Escherichia coli [10]) | IC50 (MDA-MB-231 [11]) | IC50 [13] | inhibition zone (IZ) (Pseudomonas putida [14]) | IC50 (LNCaP [15]) | IC50 (HEK-293T [16]) | IC50 (PC-3 [18]) | inhibition zone (IZ) (Bacillus subtilis [19]) | further results |
| --- | --- | --- | --- | --- | --- | --- | --- | --- | --- | --- | --- | --- | --- | --- | --- | --- | --- | --- | --- | --- | --- |
| COc1cc(NC(=O)c2csc(-c3cn(Cc4ccc(Cl)cc4)c4ccccc34)n2)cc(OC)c1OC | 100 µg/mL (≈ 187 µM) | 50 µg/mL (≈ 93.6 µM) | 100 µg/mL (≈ 187 µM) | 100 µg/mL (≈ 187 µM) | 91.4 µM | > 100 µM | > 100 µM | > 100 µM | > 100 µM | > 100 µM | 13 mm | > 100 µM | 15 mm | > 100 µM | > 100 µM | 14 mm | 97.7 µM | 58.7 µM | > 100 µM | 12 mm | – |
| O=C(O)c1cn(C2CC2)c2cc(N3CCNCC3)c(F)cc2c1=O [CIPROFLOXACIN] | – | – | 12.5 µg/mL (≈ 37.7 µM) | 6.25 µg/mL (≈ 18.9 µM) | – | – | – | – | – | – | 23 mm | – | – | – | – | 21 mm | – | – | – | 24 mm | – |
| COc1ccc(NC(=O)c2csc(-c3cn(Cc4ccc(Cl)cc4)c4ccccc34)n2)cc1 | 100 µg/mL (≈ 211 µM) | 12.5 µg/mL (≈ 26.4 µM) | 12.5 µg/mL (≈ 26.4 µM) | 50 µg/mL (≈ 105 µM) | > 100 µM | > 100 µM | > 100 µM | 90.9 µM | > 100 µM | > 100 µM | 14 mm | > 100 µM | 16 mm | 84.9 µM | > 100 µM | 16 mm | > 100 µM | > 100 µM | > 100 µM | 15 mm | – |
| CN(C)c1ccc(NC(=O)c2csc(-c3c[nH]c4ccccc34)n2)cc1 | 100 µg/mL (≈ 276 µM) | 100 µg/mL (≈ 276 µM) | 50 µg/mL (≈ 138 µM) | 50 µg/mL (≈ 138 µM) | – | – | – | – | – | – | 13 mm | – | 12 mm | – | – | 14 mm | – | – | – | 14 mm | solubility [21]: Insoluble |
| O=C(Nc1ccc(F)cc1)c1csc(-c2c[nH]c3ccccc23)n1 | 100 µg/mL (≈ 296 µM) | 100 µg/mL (≈ 296 µM) | 100 µg/mL (≈ 296 µM) | 100 µg/mL (≈ 296 µM) | – | – | – | – | – | – | 12 mm | – | 13 mm | – | – | 12 mm | – | – | – | 10 mm | solubility [21]: Insoluble |

Continued by falling MIC (Escherichia coli [12]), values first:

| MIC (Staphylococcus aureus [8]) | MIC (Escherichia coli [12]) | MIC (Pseudomonas putida [17]) | MIC (Bacillus subtilis [20]) | Structure (SMILES) | IC50 (HeLa [1]) | IC50 (HEK-293T [2]) | IC50 (LNCaP [3]) | IC50 (HeLa [4]) | IC50 (PC-3 [5]) | IC50 [6] | inhibition zone (IZ) (Staphylococcus aureus [7]) | IC50 (MDA-MB-231 [9]) | inhibition zone (IZ) (Escherichia coli [10]) | IC50 (MDA-MB-231 [11]) | IC50 [13] | inhibition zone (IZ) (Pseudomonas putida [14]) | IC50 (LNCaP [15]) | IC50 (HEK-293T [16]) | IC50 (PC-3 [18]) | inhibition zone (IZ) (Bacillus subtilis [19]) | further results |
| --- | --- | --- | --- | --- | --- | --- | --- | --- | --- | --- | --- | --- | --- | --- | --- | --- | --- | --- | --- | --- | --- |
| 50 µg/mL (≈ 157 µM) | 100 µg/mL (≈ 313 µM) | 100 µg/mL (≈ 313 µM) | – | O=C(Nc1ccccc1)c1csc(-c2c[nH]c3ccccc23)n1 | > 100 µM | > 100 µM | > 100 µM | > 100 µM | > 100 µM | > 100 µM | 14 mm | > 100 µM | 13 mm | 79.4 µM | > 100 µM | 13 mm | > 100 µM | 41.1 µM | > 100 µM | – | – |
| – | 100 µg/mL (≈ 300 µM) | 100 µg/mL (≈ 300 µM) | – | Cc1ccc(NC(=O)c2csc(-c3c[nH]c4ccccc34)n2)cc1 | > 100 µM | > 100 µM | > 100 µM | > 100 µM | > 100 µM | > 100 µM | – | > 100 µM | 12 mm | > 100 µM | > 100 µM | 12 mm | > 100 µM | > 100 µM | > 100 µM | – | – |
| 100 µg/mL (≈ 244 µM) | 50 µg/mL (≈ 122 µM) | 100 µg/mL (≈ 244 µM) | 50 µg/mL (≈ 122 µM) | COc1cc(NC(=O)c2csc(-c3c[nH]c4ccccc34)n2)cc(OC)c1OC | – | – | – | – | – | – | 12 mm | – | 14 mm | – | – | 13 mm | – | – | – | 14 mm | solubility [21]: Insoluble |
